Measurements: the NIST ThermoML archive (doi:10.1007/s10765-005-5585-3)
Numbers after ± are expanded uncertainties.

Conditions: 101.33 kPa, Liquid; for mass density: UV imaging technique; for viscosity: oscillations around equilibria

**Q.** With `[Ir]` [iridium] as the compound, how does the mass density (2300 K) read?
**A.** 19856 ± 400 kg/m3

**Q.** And the mass density (2350 K)?
**A.** 19814 ± 400 kg/m3

**Q.** What about the viscosity (2373 K) of the same compound?
**A.** 8.47 ± 0.85 mPa·s

**Q.** What about the viscosity (2398 K) of the same compound?
**A.** 8.34 ± 0.83 mPa·s

**Q.** And the mass density (2400 K)?
**A.** 19771 ± 400 kg/m3

**Q.** What about the viscosity (2423 K) of the same compound?
**A.** 8.21 ± 0.82 mPa·s

**Q.** And the viscosity (2448 K)?
**A.** 8.08 ± 0.81 mPa·s

**Q.** And the mass density (2450 K)?
**A.** 19729 ± 400 kg/m3

**Q.** What about the viscosity (2473 K) of the same compound?
**A.** 7.97 ± 0.8 mPa·s

**Q.** What about the viscosity (2498 K) of the same compound?
**A.** 7.85 ± 0.79 mPa·s

**Q.** What about the mass density (2500 K) of the same compound?
**A.** 19686 ± 390 kg/m3

**Q.** What about the viscosity (2523 K) of the same compound?
**A.** 7.74 ± 0.77 mPa·s

**Q.** What about the viscosity (2548 K) of the same compound?
**A.** 7.63 ± 0.76 mPa·s

**Q.** And the mass density (2550 K)?
**A.** 19644 ± 390 kg/m3

**Q.** And the viscosity (2573 K)?
**A.** 7.53 ± 0.75 mPa·s

**Q.** What about the viscosity (2598 K) of the same compound?
**A.** 7.42 ± 0.74 mPa·s

**Q.** And the mass density (2600 K)?
**A.** 19601 ± 390 kg/m3

**Q.** What about the viscosity (2623 K) of the same compound?
**A.** 7.33 ± 0.73 mPa·s

**Q.** And the viscosity (2648 K)?
**A.** 7.23 ± 0.72 mPa·s

**Q.** And the mass density (2650 K)?
**A.** 19559 ± 390 kg/m3

**Q.** What about the viscosity (2673 K) of the same compound?
**A.** 7.14 ± 0.71 mPa·s

**Q.** And the viscosity (2698 K)?
**A.** 7.05 ± 0.71 mPa·s

**Q.** And the mass density (2700 K)?
**A.** 19516 ± 390 kg/m3

**Q.** And the viscosity (2723 K)?
**A.** 6.97 ± 0.7 mPa·s

**Q.** What about the viscosity (2748 K) of the same compound?
**A.** 6.88 ± 0.69 mPa·s

**Q.** And the mass density (2750 K)?
**A.** 19474 ± 390 kg/m3

**Q.** And the viscosity (2773 K)?
**A.** 6.8 ± 0.68 mPa·s

**Q.** What about the mass density (2800 K) of the same compound?
**A.** 19431 ± 390 kg/m3

**Q.** What about the mass density (2850 K) of the same compound?
**A.** 19389 ± 390 kg/m3

**Q.** And the mass density (2900 K)?
**A.** 19346 ± 390 kg/m3

**Q.** What about the mass density (2950 K) of the same compound?
**A.** 19304 ± 390 kg/m3

**Q.** What about the mass density (3000 K) of the same compound?
**A.** 19261 ± 380 kg/m3
